From patent publication US8242085B2, “Tetrahydrofuro [3,4-D] dioxolane compounds for use in the treatment of viral infections and cancer” (BioCryst Pharmaceuticals, Inc., priority 2007, dated 2012)

Assay: in vivo test of prodrug hydrolysis to active compound
Settings: tested in vivo

C[C@@]12OC(c3ccc(Cl)cc3)O[C@@H]1[C@@H](CO)O[C@H]2c1coc2c(N)ncnc12 (stereo partly drawn) [Example 1, ((3aR,4R,6S,6aS)-6-(4-Aminofuro[3,2-d]pyrimidin-7-yl)-2-(4-chlorophenyl)-6a-methyltetrahydrofuro[3,4-d][1,3]dioxol-4-yl)methanol]
hydrolysis of prodrug in vivo: hydrolyzes in vivo to provide an active compound
